Test results published in the NIST ThermoML archive (doi:10.1016/j.jct.2011.11.025).
± gives the expanded uncertainty stated by the source.

Assay: activity coefficient (dimensionless); of the first substance listed, at infinite dilution; xn = mol fraction of the nth substance listed
Conditions: Liquid, Chromatography, x1 = 0

CCCOCCC [dipropyl ether] + CCCCCCn1cc[n+](C)c1.N#C[B-](C#N)(C#N)C#N
activity coefficient (318.15 K): 3.82 ± 0.17 | activity coefficient (328.15 K): 3.77 ± 0.17 | activity coefficient (338.15 K): 3.73 ± 0.17 | activity coefficient (348.15 K): 3.74 ± 0.17 | activity coefficient (358.15 K): 3.72 ± 0.17 | activity coefficient (368.15 K): 3.73 ± 0.17

CCCC(C)=O [pentan-2-one] + CCCCCCn1cc[n+](C)c1.N#C[B-](C#N)(C#N)C#N
activity coefficient (318.15 K): 0.497 ± 0.033 | activity coefficient (328.15 K): 0.513 ± 0.032 | activity coefficient (338.15 K): 0.529 ± 0.032 | activity coefficient (348.15 K): 0.544 ± 0.032 | activity coefficient (358.15 K): 0.556 ± 0.032 | activity coefficient (368.15 K): 0.572 ± 0.031

C#CCCCC [1-hexyne] + CCCCCCn1cc[n+](C)c1.N#C[B-](C#N)(C#N)C#N
activity coefficient (318.15 K): 2.17 ± 0.1 | activity coefficient (328.15 K): 2.19 ± 0.1 | activity coefficient (338.15 K): 2.2 ± 0.1 | activity coefficient (348.15 K): 2.24 ± 0.1 | activity coefficient (358.15 K): 2.26 ± 0.1 | activity coefficient (368.15 K): 2.3 ± 0.1

C1CCCCCCC1 [cyclooctane] + CCCCCCn1cc[n+](C)c1.N#C[B-](C#N)(C#N)C#N
activity coefficient (318.15 K): 9.94 ± 0.46 | activity coefficient (328.15 K): 9.29 ± 0.43 | activity coefficient (338.15 K): 8.75 ± 0.4 | activity coefficient (348.15 K): 8.33 ± 0.38 | activity coefficient (358.15 K): 7.9 ± 0.36 | activity coefficient (368.15 K): 7.57 ± 0.35

C=CCCCCCCCC [1-decene] + CCCCCCn1cc[n+](C)c1.N#C[B-](C#N)(C#N)C#N
activity coefficient (318.15 K): 21.5 ± 1 | activity coefficient (328.15 K): 20.5 ± 0.9 | activity coefficient (338.15 K): 19.3 ± 0.9 | activity coefficient (348.15 K): 18.5 ± 0.9 | activity coefficient (358.15 K): 17.6 ± 0.8 | activity coefficient (368.15 K): 16.9 ± 0.8

CCCCC [pentane] + CCCCCCn1cc[n+](C)c1.N#C[B-](C#N)(C#N)C#N
activity coefficient (318.15 K): 8.63 ± 0.4 | activity coefficient (328.15 K): 8.22 ± 0.38 | activity coefficient (338.15 K): 7.85 ± 0.36 | activity coefficient (348.15 K): 7.61 ± 0.35 | activity coefficient (358.15 K): 7.33 ± 0.34 | activity coefficient (368.15 K): 7.13 ± 0.33

C1CCCCC1 [cyclohexane] + CCCCCCn1cc[n+](C)c1.N#C[B-](C#N)(C#N)C#N
activity coefficient (318.15 K): 6.52 ± 0.3 | activity coefficient (328.15 K): 6.15 ± 0.28 | activity coefficient (338.15 K): 5.85 ± 0.27 | activity coefficient (348.15 K): 5.58 ± 0.26 | activity coefficient (358.15 K): 5.38 ± 0.25 | activity coefficient (368.15 K): 5.21 ± 0.24

C=C(C)c1ccccc1 [(1-methylethenyl)benzene] + CCCCCCn1cc[n+](C)c1.N#C[B-](C#N)(C#N)C#N
activity coefficient (328.15 K): 1.2 ± 0.04 | activity coefficient (338.15 K): 1.26 ± 0.04 | activity coefficient (348.15 K): 1.3 ± 0.04 | activity coefficient (358.15 K): 1.34 ± 0.05 | activity coefficient (368.15 K): 1.38 ± 0.05

C=CCCCCCC [oct-1-ene] + CCCCCCn1cc[n+](C)c1.N#C[B-](C#N)(C#N)C#N
activity coefficient (318.15 K): 11.7 ± 0.5 | activity coefficient (328.15 K): 11.1 ± 0.5 | activity coefficient (338.15 K): 10.7 ± 0.5 | activity coefficient (348.15 K): 10.3 ± 0.5 | activity coefficient (358.15 K): 9.91 ± 0.46 | activity coefficient (368.15 K): 9.64 ± 0.44

C=CCCCCC [1-heptene] + CCCCCCn1cc[n+](C)c1.N#C[B-](C#N)(C#N)C#N
activity coefficient (318.15 K): 8.39 ± 0.38 | activity coefficient (328.15 K): 8.06 ± 0.37 | activity coefficient (338.15 K): 7.79 ± 0.36 | activity coefficient (348.15 K): 7.59 ± 0.35 | activity coefficient (358.15 K): 7.37 ± 0.34 | activity coefficient (368.15 K): 7.24 ± 0.33

O [water] + CCCCCCn1cc[n+](C)c1.N#C[B-](C#N)(C#N)C#N
activity coefficient (318.15 K): 2.05 ± 0.09 | activity coefficient (328.15 K): 1.87 ± 0.08 | activity coefficient (338.15 K): 1.7 ± 0.07 | activity coefficient (348.15 K): 1.55 ± 0.06 | activity coefficient (358.15 K): 1.42 ± 0.05 | activity coefficient (368.15 K): 1.33 ± 0.05

CCCCCCCCC [nonane] + CCCCCCn1cc[n+](C)c1.N#C[B-](C#N)(C#N)C#N
activity coefficient (318.15 K): 31.4 ± 1.5 | activity coefficient (328.15 K): 28.8 ± 1.3 | activity coefficient (338.15 K): 26.6 ± 1.2 | activity coefficient (348.15 K): 24.9 ± 1.2 | activity coefficient (358.15 K): 23.2 ± 1.1 | activity coefficient (368.15 K): 21.9 ± 1

CC(C)CC(C)(C)C [2,2,4-trimethylpentane] + CCCCCCn1cc[n+](C)c1.N#C[B-](C#N)(C#N)C#N
activity coefficient (318.15 K): 18.8 ± 0.9 | activity coefficient (328.15 K): 17.6 ± 0.8 | activity coefficient (338.15 K): 16.5 ± 0.8 | activity coefficient (348.15 K): 15.7 ± 0.7 | activity coefficient (358.15 K): 15 ± 0.7 | activity coefficient (368.15 K): 14.3 ± 0.7
